Where two headings read alike, the source gives them in different places.
How the values were obtained:
[1] = tested on: STAT-3 transcription factor; experiment: STAT3 inhibition, luciferase reporter (4xM67 pTATA TK-Luc) in HeLa cells stimulated with γ-Interferon; type: cell-based; conditions: γ-Interferon 8 h, luciferase activity, read-out: Anti STAT3 IC50
Experimental: HeLa cells (4×10^4/ml) were transiently transfected with a luciferase reporter plasmid (4×M67 pTATA TK-Luc) driven by artificial promoter containing 4 repeated M67 binding sites in tandem for the STAT-3 transcription factor. The transfections were performed for 24 h using Roti-Fect reagent (Carl Roth, Karlsruhe, Germany) according to the manufacturer's recommendations. After incubation with different concentrations of the extracts for 30 min the transfected cells were stimulated for 8 h with γ-Interferon. Then, the cells were lysed in 25 mM Tris-phosphate pH 7.8, 8 mM MgCl2, 1 mM DTT, 1% Triton X-100, and 7% glycerol. Luciferase activity was measured as described for 5.1 cells.
γ-Interferon induces an average of 5-6 fold induction of the luciferase activity compared to non stimulated cells and this represent the index of transactivation that is represented in our experiment as the maximum levels of γ-Interferon-induced STAT-3 activation (100%). Results below represent the IC50 for each compound in this assay. The IC50 means the concentration of each compound that reduces luciferase activity by 50% and it was calculated by GraphPad software.

LNCaP-IL6 cells = experiment: WST-1 proliferation assay, LNCaP-IL6 cells; type: cell-based, human
Experimental: (§1) The human prostate cancer cell lines DU145, LNCaP (from the American Type culture Collection, ATCC) and long-term interleukin-6 (IL-6) stimulated LNCaP cells (LNCaP-IL6 cells) (Hobisch, Ramoner et al. 2001) were used. The cells were cultured in RPMI 1640 medium supplemented with 10% FBS and 1% penicillin-streptomycin. All cells were incubated at 37° C. in a humidified atmosphere of […] and 5% CO2.
(§2) WST-1 proliferation assay was performed to study the effects of the test items on the proliferation and viability of cultured prostate cancer cells. LNCaP and DU145 cells were cultured in 96-well plates at the density of 2 000 cells/well in 200 μl of medium. Cells were allowed to set for 24 h. The cells were treated with 0, 2.5, 5 or 10 μM of the specific substance for 24 h and 48 h. Samples were made in triplicate. 20 μl WST-1 solution (Roche Applied Science, Mannheim, Germany) was added per well and incubated at 37° C. for 4 h. The absorbance of each well was measured using a scanning multiwell spectrophotometer, ELISA reader at a wavelength of 450 nm and reference wavelength of 690 nm. The results are presented as percent of untreated control cells or the absorbance value.

DU145 = experiment: WST-1 proliferation assay, DU145 cells (Example 16); type: cell-based, human
Experimental: as §1, §2

NF-κB = experiment: NF-κB-dependent transcriptional activity, Jurkat-LTR-Luc (Jurkat 5.1) cells stimulated with TNF-α; type: cell-based; conditions: TNF-α (2 ng/ml) 6 h, luciferase activity, read-out: IC50 anti-NF-κB
Experimental: The potency of (−)-Galiellalactone and compound examples of the invention in inhibiting NF-κB-dependent transcriptional activity was assayed in a Jurkat-LTR-Luc cell line. This cellular model have been widely used for the screening of natural and synthetic NF-κB inhibitors (Appendino et al, J Nat Prod. 2007, 70(4), 608-612; J Nat Prod. 2006, 69(7), 1101-1104; Marquez et al, Antiviral Res. 2005, 66(2-3), 137-145) Jurkat 5.1 cells were preincubated for 30 min with increasing concentrations of the compounds dissolved in DMSO followed by stimulation with TNF-α (2 ng/ml) for 6 h. Cells were washed twice in PBS and lysed in 25 mM Tris-phosphate, pH 7.8, 8 mM MgCl2, 1 mM DTT, 1% Triton X-100, and 7% glycerol for 15 min at room temperature. Then the lysates were spun down and the supernatant was used to measure luciferase activity using an Autolumat LB 9510 (Berthold Technologies). Protein concentration was determined by the Bradford method (Bio-Rad, Richmond, Calif.). Results below represent the 1050 for each compound in this assay.

IL-6/STAT3 signaling = conditions: background statement; cited from earlier work

IC50 [1] [nM]	IC50 (NF-κB) [nM]	IC50 ([1]; Homo sapiens) [nM]	IC50 (NF-κB; Homo sapiens) [nM]	SMILES	% Proliferation (vs control) 24 h LNCaP-IL6 (LNCaP-IL6 cells; 2.5 uM) [%]	% Proliferation (vs control) 48 h LNCaP-IL6 (LNCaP-IL6 cells; 2.5 uM) [%]	% Proliferation (vs control) 24 h LNCaP-IL6 (LNCaP-IL6 cells; 5 uM) [%]	% Proliferation (vs control) 48 h LNCaP-IL6 (LNCaP-IL6 cells; 5 uM) [%]	% Proliferation (vs control) 24 h LNCaP-IL6 (LNCaP-IL6 cells; 10 uM) [%]	% Proliferation (vs control) 48 h LNCaP-IL6 (LNCaP-IL6 cells; 10 uM) [%]	% Proliferation (vs control) 24 h DU145 (DU145; 2.5 uM) [%]	% Proliferation (vs control) 48 h Du145 (DU145; 2.5 uM) [%]	% Proliferation (vs control) 24 h DU145 (DU145; 5 uM) [%]	% Proliferation (vs control) 48 h Du145 (DU145; 5 uM) [%]	% Proliferation (vs control) 24 h DU145 (DU145; 10 uM) [%]	% Proliferation (vs control) 48 h Du145 (DU145; 10 uM) [%]	inhibition of IL-6/STAT3 signaling (IL-6/STAT3 signaling)
7700	5500			C[C@@H]1C=C2C(=O)O[C@@H]3CC[C@H](C1)C23O (single isomer, unassigned; (-)) [(−)-Galiellalactone, reference compound]	90.91	96.78	68.76	68.76	77.11	23.22	84.24	76.36	63.19	38.51	48.44	22.24	submicromolar
		2100	2660	C[C@H]1C=C2C(=O)OC3C(C)(C)C[C@H](C1)[C@]23O (stereo partly drawn) [Example 1, 2a^1-hydroxy-4,7,7-trimethyl-4,5,5a,6,7,7a-hexahydroindeno[1,7-bc]furan-2(2a^1H)-one]	65.41	52.42	68.95	26.28	69.23	16.19	80.19	67.45	68.82	35.62	54.07	22.77	
		1180	330	C[C@H]1C=C2C(=O)OC3[C@H](c4ccccc4)C[C@H](C1)[C@]23O (stereo partly drawn) [Example 2, 2a^1-hydroxy-4-methyl-7-phenyl-4,5,5a,6,7,7a-hexahydroindeno[1,7-bc]furan-2(2a^1H)-one]	81.79	79.56	81.21	57.14	70.45	20.19	90.64	68.04	68.55	34.07	63.86	30.26	
		2870	1260	C[C@H]1C=C2C(=O)OC3[C@H](Cc4ccccc4)C[C@H](C1)[C@]23O (stereo partly drawn) [Example 3, 7-benzyl-2a^1-hydroxy-4-methyl-4,5,5a,6,7,7a-hexahydroindeno[1,7-bc]furan-2(2a^1H)-one]	57.10	27.82	59.00	18.15	53.01	12.49	56.33	31.10	52.11	18.38	44.48	14.45	

Source: US9150531B2, “Tricyclic lactones for treatment of cancer” (Glactone Pharma Development AB, priority 2010, dated 2015)
